Source: patent US9260707B2, “Compounds for inhibition of MMP13-substrate interactions and methods of use thereof to treat osteoarthritis and cartilage degeneration” (ProteaPex Therapeutics, LLC, priority 2010, dated 2016)
Peptide text beside a SMILES is read from it.

Tests used:
MMP = conditions: in vivo; cited from earlier work
MMP13 = MMP13 enzymatic activity in cartilage extracts with inhibitors; format: biochemical, avian
Experimental: Utilizing a standard curve with MMP13 and MMP9 catalytic domains (Enzo, Inc) we quantitated the amount of MMP13 and MMP9 activity in cartilage extracts (Table 4). Cartilage isolated from day 17 avian embryos contain 0.166 units and 0.152 units MMP13 per 40 μg total tissue in early hypertrophic and late hypertrophic tissue, respectively. […] Inclusion of an inhibitor of MMP13 (Calbiochem) reduces the activity in both cartilage populations by 24% and 30% respectively.

[1] = Toxicity in vivo by blood analysis; set-up: species or system rat
Experimental: Cytotoxicity was assessed by Alomar Blue Assay (Invitrogen) on primary chondrocytes and a monocyte cell line incubated for 24 hours with PxTx001-1. Absorbance was recorded at 570 nm for every hour up to 24 hrs to monitor both proliferation and metabolic activity. (FIG. 39). Toxicity in vivo was determined by blood analysis from rats that had been injected with the peptide as described previously. Total cell count, blood components and serum proteins were measured (Table 5).

[2] = system: hypertrophic cartilage tissue extract (LTBP1-containing TGFβ large latent complex); assay: Peptide binding assay, hypertrophic cartilage tissue extract; set-up: species or system avian; conditions: 100 nM fluorescent-labeled peptide
From the text: (§1) Cartilage from day 17 avian embryo sterna was extracted with 0.5% CHAPS buffer and binding assays conducted. Scr=scrambled control; +cold=unlabeled competition. *=p<0.001 compared to scrambled. ***=p<0.001 compared to MMP13-derived peptide by ANOVA with Tukey's Analysis. (A) Resting cartilage and MMP13-19 peptide. (B) Hypertrophic cartilage and MMP13-19 peptide. (C) Hypertrophic cartilage and MMP13-10 peptide D. hypertrophic cartilage and MMP13-6 peptide.
(§2) Twenty-five micrograms of total equal protein from cartilage CHAPS extracts or five nanograms recombinant protein of the calcium-like EGF binding domain of LTBP1 (a kind gift of Sarah Dallas) or hypertrophic cartilage from day 17 avian embryo sterna and tibial growth plate cartilage from day 14 newborn rat pups were extracted with 0.5% CHAPS buffer and eluates immunoprecipitated with polyclonal antibody to LTBP1 and then samples were plated onto poly-L-lysine coated 96 well plates. After overnight drying, the protein-coated wells were incubated with 100 nM fluorescent-labeled peptide in Tris buffered saline [150 mM NaCl, 10 mM Tris, pH 8.0] and 20% horse serum for 4 hours at 16° C. After incubation, the wells are washed twice with binding buffer, the protein layer solubilized with 5N NaOH and fluorescence bound measured at 495 nm excitation and 520 nm emission on the LabSystems Fluoroskan Ascent CF plate reader. […]

[3] = system: resting cartilage tissue extract (LTBP1-containing TGFβ large latent complex); assay: Peptide binding assay, resting cartilage tissue extract; set-up: species or system avian; conditions: 100 nM fluorescent-labeled peptide
From the text: as §1, §2

[4] = system: hypertrophic chondrocyte-produced extracellular matrix (LTBP1 in native conformation); assay: Peptide binding to extracellular matrix of whole cell primary chondrocyte cultures; set-up: species or system avian
Experimental: (§3) Binding assays utilizing intact hypertrophic chondrocyte-produced extracellular matrix, LTBP1 immunoprecipitates of hypertrophic chondrocyte-produced extracellular matrix and recombinant protein of the calcium-binding, EGF-like domains of LTBP1 (30) were performed as described in Materials and Methods. *=p<0.001 compared to scrambled. ***=p<0.001 compared to MMP13-derived peptide by ANOVA with Tukey's analysis. (A) Intact hypertrophic chondrocyte-produced extracellular matrix and MMP13-19 or MMP13-10 peptide binding. (B) 25 μg eluates of hypertrophic cartilage immunoprecipitated with polyclonal antibody to LTBP1 and MMP13-19 peptide binding. (C) 15 ng of recombinant protein of the calcium-binding, EGF-like domains and MMP13-19 or MMP13-10 or MMP13-6 peptide binding.
Sterna were removed from day 17 chick embryos using microsurgical techniques as previously described (D'Angelo et al., J. Bone Miner. Res. 12:1368-1377, 1997). […] The cell suspensions were then filtered through a […] filter, counted, seeded onto Falcon 6-well, tissue culture treated plates and covered with 2 ml of high glucose DMEM containing 10% NuSerum and 50 μg/ml of penicillin/streptomycin, 2 mM of L-glutamine (Invitrogen Life Technologies, Carlsbad, Calif., USA). […]

[5] = system: calcium-binding EGF-like domains of LTBP1 (CE-LTBP1); assay: Peptide binding to recombinant calcium-binding EGF-like domains of LTBP1 (CE-LTBP1)
Experimental: as §3, with “(C) 15 ng of recombinant protein of the calcium-binding, EGF-like domains and MMP13-19 or MMP13-10 or MMP13-6 peptide binding.” left out
as §2, with “After overnight drying, the protein-coated wells were incubated with 100 nM fluorescent-labeled peptide in Tris buffered saline [150 mM NaCl, 10 mM Tris, pH 8.0] and 20% horse serum for 4 hours at 16° C.” left out

[6] = system: mono-iodoacetate (MIA)-induced osteoarthritis; assay: MIA-induced osteoarthritis, cartilage mineralization (total and bone volume), d14 and d21; format: in vivo, rat; set-up: Total Volume / Bone Volume: unit not given here
Experimental: Isolated joints were analyzed by Micro CT to measure cortical bone, trabecular bone and cartilage of the patella, femur and tibia, the production of chondrophytes and tissue mineralization in response to treatment. Total mineralization in the patella, femur and tibial cartilages, as well as subchondral bone, were calculated with Scanco μCT software. Micro-CT was conducted with a Scanco uCT 35 (Scanco Medical, Bassersdorf, Switzerland) system. Scans of 15 μm voxel size, 55 KVp, 0.36 degrees rotation step (180 degrees angular range) and a 600 ms exposure per view produced from joints immersed in phosphate buffered saline.
Animals were treated with MMP13-19 peptide or BMP-7 protein once a week for two (d14) or three (d21) weeks following an injection of mono-iodoacetate (MIA), a chemical agent that induces osteoarthritis pathology measurable at four weeks post injection. The samples that received saline are the positive disease control. 250 nM of MMP13-19 peptide and 50 uM BMP-7 were injected laterally below the patellar ligament. […] But, it is also known that BMP-7 is bone-inducing.

MIA-induced OA model = assay: Acute treatment of MIA-induced OA, week 4 micro CT; format: in vivo, rat

## COc1ccc(S(=O)(=O)N(Cc2cccnc2)[C@@H](C(=O)NO)C(C)C)cc1 [CGS-27023A]
MMP
  side-effects in treatment of OA: severe side-effects known as MMP-induced musculoskeletal syndrome

## Cc1cc(CNC(=O)c2cc(C(=O)NCc3ccc(F)c(C)c3)ncn2)ccc1F [MMP13 Inhibitor]
MMP13; early hypertrophic tissue
  reduction of MMP13 activity: 24%
MMP13; late hypertrophic tissue
  reduction of MMP13 activity: 30%

## CC[C@H](C)[C@H](NC(=O)[C@H](CCCCN)NC(=O)[C@H](CCCCN)NC(=O)[C@@H](NC(=O)[C@H](CCC(=O)O)NC(=O)[C@H](CCCCN)NC(=O)[C@@H]1CCCN1C(=O)[C@H](CC(C)C)NC(=O)CNC(=O)[C@H](CC(C)C)NC(=O)[C@@H](N)CCC(=O)O)C(C)C)C(=O)N[C@@H](CO)C(=O)N[C@@H](C)C(=O)N[C@@H](C)C(=O)N[C@H](C(=O)N[C@@H](Cc1c[nH]cn1)C(=O)N[C@@H](Cc1ccccc1)C(=O)N[C@@H](CCC(=O)O)C(=O)N[C@@H](CC(=O)O)C(=O)O)C(C)C [MMP13-19 peptide] (H-ELGLPKEVKKISAAVHFED-OH)
[1]; 1 injection
  ALT: 56 U/L
  AST: 99 U/L
  Alk Phos: 272 U/L
  BUN: 15 mg/dL
  Cholesterol: 74 mg/dL
  Creatinine: 0.4 mg/dL
  RBC: 5.59e+06 µL⁻¹
  Total Bilirubin: 0.3 mg/dL
  WBC: 3600 µL⁻¹
[1]; 4 injections
  ALT: 52 U/L
  AST: 95 U/L
  Alk Phos: 194.5 U/L
  BUN: 18 mg/dL
  Cholesterol: 67.5 mg/dL
  Creatinine: 0.3 mg/dL
  RBC: 6.9e+06 µL⁻¹
  Total Bilirubin: 1.1 mg/dL
  WBC: 4550 µL⁻¹
[1]; rats injected with the peptide
  total cell count, blood components and serum proteins (all parameters measured): within normal ranges

## CC1(C)SCCN(S(=O)(=O)c2ccc(Oc3ccncc3)cc2)[C@H]1C(=O)NO [prinomastat]
MMP
  side-effects in treatment of OA: severe side-effects known as MMP-induced musculoskeletal syndrome

## MMP13-6 peptide: amino acids 37-42 of SEQ ID NO: 1 (VDAELF; listed as Homo sapiens)
[2]
  binding compared to scrambled peptide control: did not specifically bind
[3]
  binding compared to scrambled peptide control: did not specifically bind
[4]
  binding compared to scrambled peptide: did not bind specifically
[5]
  binding of recombinant protein more than scrambled peptide: did not bind specifically

## MMP13-10 peptide: amino acids 17-26 of SEQ ID NO: 1 (LRGETMIFKD; listed as Homo sapiens)
[2]
  binding compared to scrambled peptide control: less than two-fold
[3]
  binding compared to scrambled peptide control: less than two-fold
[4]
  binding compared to scrambled peptide: four-fold
[5]
  binding of recombinant protein more than scrambled peptide: did not bind specifically

B1: BMP-7: BMP-7 protein, positive control, chondroprotective and bone-inducing (protein, UniProt P18075 293-431, looked up)
Bone morphogenetic protein 7: STGSKQRSQNRSKTPKNQEALRMANVAENSSSDQRQACKKHELYVSFRDLGWQDWIIAPEGYAAYYCEGECAFPLNSYMNATNHAIVQTLVHFINPETVPKPCCAPTQLNAISVLYFDDSSNVILKKYRNMVVRACGCH
[6]; Patellar cartilage d14
  BV/TV: 0.0626
  Bone Volume: 0.419
[6]; Patellar cartilage d14, 250 nM peptide or 50 uM BMP-7 once a week
  Total Volume: 6.6967
[6]; Patellar cartilage d21
  BV/TV: 0.0192
  Bone Volume: 0.2037
  Total Volume: 10.7748
[6]; Total Joint Cartilage d14
  BV/TV: 0.0435
  Bone Volume: 1.0643
  Total Volume: 24.4891
[6]; Total Joint Cartilage d21
  BV/TV: 0.0412
  Bone Volume: 0.9607
  Total Volume: 23.3101
MIA-induced OA model; Femur
  BV/TV (ratio of bone volume to total volume): 0.2245 +/− 0.066
  TbN (trabecular number): 4.200 +/− 0.830
MIA-induced OA model; Patella
  TbN (trabecular number): 6.2122 +/− 0.169
MIA-induced OA model; Patella, 250 nM peptide or 500 ng BMP7 weekly infrapatellar
  BV/TV (ratio of bone volume to total volume): 0.6846 +/− 0.084
MIA-induced OA model; Tibia
  BV/TV (ratio of bone volume to total volume): 0.1757 +/− 0.087
  TbN (trabecular number): 4.9095 +/− 0.719
